Values joined by “and” are separate entries in the source; they are usually repeats but may differ in a detail not shown here. Identical values can stand only once. Counter-ions that a name gives are not always drawn.

The target in this assay is PI3K-Delta (Homo sapiens, UniProt O00329). The assay can be described thus: PI3K HTRF assay (PI3K Delta). The assay is classed as biochemical. To be noted: PI3K-Delta 1.5 nM, 80 μM ATP, 10 μM PIP2 final, read-out: mean pIC50 in the PI3K Delta assay (converted). The procedure: Biological Data PI3K HTRF Assay
Sequence of PI3K-Delta (O00329 whole entry): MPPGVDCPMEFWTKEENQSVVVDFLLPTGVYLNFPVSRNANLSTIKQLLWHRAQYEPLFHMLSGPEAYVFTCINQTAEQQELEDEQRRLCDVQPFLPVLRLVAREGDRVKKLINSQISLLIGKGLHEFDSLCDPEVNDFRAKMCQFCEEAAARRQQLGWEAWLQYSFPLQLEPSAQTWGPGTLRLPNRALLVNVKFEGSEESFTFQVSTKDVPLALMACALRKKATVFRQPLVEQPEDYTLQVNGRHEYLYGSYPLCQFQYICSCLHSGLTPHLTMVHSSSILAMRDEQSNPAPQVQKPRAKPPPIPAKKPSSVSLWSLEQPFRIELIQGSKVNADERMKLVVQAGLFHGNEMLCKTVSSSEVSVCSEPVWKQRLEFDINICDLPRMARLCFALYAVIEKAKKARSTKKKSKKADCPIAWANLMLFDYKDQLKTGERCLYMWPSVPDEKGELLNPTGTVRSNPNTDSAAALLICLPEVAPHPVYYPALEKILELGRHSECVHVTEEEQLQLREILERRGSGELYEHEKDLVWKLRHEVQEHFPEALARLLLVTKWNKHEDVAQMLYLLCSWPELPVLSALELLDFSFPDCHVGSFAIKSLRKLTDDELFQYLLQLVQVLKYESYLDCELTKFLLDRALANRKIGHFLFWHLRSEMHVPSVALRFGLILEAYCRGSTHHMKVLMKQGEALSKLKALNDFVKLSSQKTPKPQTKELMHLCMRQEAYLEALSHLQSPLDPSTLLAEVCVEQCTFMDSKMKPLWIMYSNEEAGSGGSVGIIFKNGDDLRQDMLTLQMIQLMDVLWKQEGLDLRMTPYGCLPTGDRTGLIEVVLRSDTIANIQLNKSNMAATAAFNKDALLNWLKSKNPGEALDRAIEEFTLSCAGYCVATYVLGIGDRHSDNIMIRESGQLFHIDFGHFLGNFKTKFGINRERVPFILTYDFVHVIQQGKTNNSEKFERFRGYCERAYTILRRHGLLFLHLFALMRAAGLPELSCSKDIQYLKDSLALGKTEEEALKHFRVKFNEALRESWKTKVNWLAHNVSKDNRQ
Sequence of PI3K-Delta (P27986 whole entry partner): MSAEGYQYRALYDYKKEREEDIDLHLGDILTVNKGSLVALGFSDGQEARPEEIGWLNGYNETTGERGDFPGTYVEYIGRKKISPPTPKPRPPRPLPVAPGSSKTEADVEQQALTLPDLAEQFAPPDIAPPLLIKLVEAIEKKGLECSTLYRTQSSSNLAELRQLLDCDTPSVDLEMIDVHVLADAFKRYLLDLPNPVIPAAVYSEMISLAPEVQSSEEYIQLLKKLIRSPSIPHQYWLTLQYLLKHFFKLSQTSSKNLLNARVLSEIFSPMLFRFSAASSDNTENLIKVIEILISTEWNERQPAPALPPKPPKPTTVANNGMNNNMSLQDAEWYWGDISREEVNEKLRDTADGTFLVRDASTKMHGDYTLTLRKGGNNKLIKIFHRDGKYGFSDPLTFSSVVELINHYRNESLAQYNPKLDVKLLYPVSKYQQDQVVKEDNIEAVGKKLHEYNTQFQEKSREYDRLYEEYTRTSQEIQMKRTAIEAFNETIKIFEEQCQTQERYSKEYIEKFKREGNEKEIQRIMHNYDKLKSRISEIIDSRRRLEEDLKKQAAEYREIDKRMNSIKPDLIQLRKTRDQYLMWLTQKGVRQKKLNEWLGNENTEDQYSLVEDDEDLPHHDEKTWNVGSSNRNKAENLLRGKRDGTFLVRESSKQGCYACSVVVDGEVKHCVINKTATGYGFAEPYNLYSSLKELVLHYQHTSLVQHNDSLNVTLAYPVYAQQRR
The binding of compounds to PI3K-alpha/beta/delta/gamma is determined by homogeneous time resolved fluorescence (HTRF) assays as follows;
Briefly, solid compound is dissolved in 100% DMSO at a concentration of 2 mM. Dilutions are prepared in 100% DMSO using a 1 in 4 serial step dilution. The dilutions are transferred to black low volume Greiner assay plates ensuring that the DMSO concentration is constant across the plate at 1% (0.1 ul/well).
PI3K Reaction Buffer (contains 50 mM HEPES pH7.0 (NaOH), 150 mM NaCl, 10 mM MgCl2, 2.3 mM sodium cholate, 10 μM CHAPS made up in milliQ water). Fresh DTT is added at a final concentration of 1 mM on the day of use. Wortmannin at a concentration sufficient to produce 100% inhibition (8.33e-6 M) is added to column 18 of compound plates.
Enzyme solutions: 1× PI3K assay Buffer containing: • 550 pM PI3K-Alpha enzyme (275 pM final assay concentration) • 800 pM PI3K-Beta enzyme (400 pM final assay concentration) • 3 nM PI3K-Delta enzyme (1.5 nM final assay concentration) • 10 nM PI3K-Gamma enzyme (5 nM final assay concentration)
These concentrations are optimal to achieve a signal:background of between 1.5-4.5. The enzyme solution is added to columns 1-24 (3 ul/well) and plates are incubated for 15 minutes at room temperature.
Substrate solution: 1× PI3K assay buffer containing: • PI3K-Alpha: 500 μM ATP, 20 μM PIP2 and 120 nM biotin-PIP3. (Final assay concentrations are 250 μM ATP, 10 μM PIP2 (both at Km) and 40 nM biotin-PIP3) • PI3K-Beta: 800 μM ATP, 20 μM PIP2 and 120 nM biotin-PIP3. (Final assay concentrations are 400 μM ATP, 10 μM PIP2 (both at Km) and 40 nM biotin-PIP3) • PI3K-Delta: […], 20 μM PIP2 and 120 nM biotin-PIP3. (Final assay concentrations are 80 μM ATP, 10 μM PIP2 (both at Km) and 40 nM biotin-PIP3) • PI3K-Gamma: 30 μM ATP, 20 μM PIP2 and 120 nM biotin-PIP3.
This is added to all wells and plates are incubated for 1 hour at room temperature.
Detection solution: PI3K Detection Buffer (contains 50 mM HEPES pH7.0 (HCl), 150 mM NaCl, 2.3 mM sodium cholate, 10 μM CHAPS, 240 mM potassium fluoride) containing 2 mM DTT (2× final concentration), 90 nM GRP-1 PH domain, 300 nM Streptavidin-APC and 24 nM Europium-anti-GST (6× final concentrations)
This is mixed left at room temperature (protected from light).
STOP solution: PI3K STOP Buffer (contains 50 mM HEPES pH7.0 (HCl), 150 mM NaCl, 2.3 mM sodium cholate, 10 μM CHAPS, 150 mM EDTA).
Detection solution is diluted 1:1 with STOP solution and added to all wells (3 ul/well). Plates are covered and incubated on the bench for 45-60 minutes. Plates are read on a PerkinElmer Envision, measuring TR-FRET between the complex formed between the GST-tagged PH domain and biotinylated PIP3 which both recruit fluorophores (Europium-labelled anti-GST & Strep-APC respectively). […], this complex is disrupted by the competitive action of non-biotinylated PIP3 (formed in the assay by the phosphorylation of PIP2 by the kinase & ATP). From this, the ratio of acceptor/donor was calculated (Aex=317 nm, Aem donor=615 nm, em acceptor=665 nm) and used for data analysis.
On to `COc1ncc(N2CCOCC2)cc1S(=O)(=O)Nc1ccnc(-c2ccc(CN3C[C@@H](C)O[C@@H](C)C3)cc2F)c1` [Example 36, Rac-N-(2-(4-(((2S,6R)-2,6-dimethylmorpholino)methyl)-2-fluorophenyl)pyridin-4-yl)-2-methoxy-5-morpholinopyridine-3-sulfonamide], for which the IC50 is ≤ 3.16 nM.

Consider `COc1ncc(N2CCOCC2)cc1S(=O)(=O)Nc1ccnc(-c2ccc(CN3CCC(C(C)(C)O)CC3)cc2F)c1` [Example 22], for which the IC50 is ≤ 3.16 nM.

On to `CCOc1ncc(N2CCOCC2)cc1S(=O)(=O)Nc1ccnc(-c2ccc(CN3C[C@@H](C)O[C@@H](C)C3)cc2F)c1` [Example 37, Rac-N-(2-(4-(((2S,6R)-2,6-dimethylmorpholino)methyl)-2-fluorophenyl)pyridin-4-yl)-2-ethoxy-5-morpholinopyridine-3-sulfonamide], for which the IC50 is ≤ 3.16 nM.

With `COc1ncc(N2CCOCC2)cc1S(=O)(=O)Nc1ccnc(-c2ccc(CN3CCN(C(C)C)CC3)c(F)c2)c1` [Example 5, N-(2-(3-Fluoro-4-((4-isopropylpiperazin-1-yl)methyl)phenyl)pyridin-4-yl)-2-methoxy-5-morpholinopyridine-3-sulfonamide], the IC50 was ≤ 3.16 nM.

On to `COc1ncc(N2CCOCC2)cc1S(=O)(=O)Nc1ccnc(-c2ccc(CN3CCN(C4CCC4)CC3)cc2F)c1` [Example 16, N-(2-(4-((4-Cyclobutylpiperazin-1-yl)methyl)-2-fluorophenyppyridin-4-yl)-2-methoxy-5-morpholinopyridine-3-sulfonamide, 2.5 formic acid salt], for which the IC50 is ≤ 3.16 nM.

For `COc1ncc(N2CCOCC2)cc1S(=O)(=O)Nc1ccnc(-c2cc(F)c(CN3CCN(C(C)C)CC3)c(F)c2)c1` [Example 12, N-(2-(3,5-Difluoro-4-((4-isopropylpiperazin-1-yl)methyl)phenyl)pyridin-4-yl)-2-methoxy-5-morpholinopyridine-3-sulfonamide], the IC50 was ≤ 3.16 nM.

Take `COc1ncc(N2CCOCC2)cc1S(=O)(=O)Nc1ccnc(-c2ccc(CN3CCN(C(C)C)CC3)c(F)c2F)c1` [Example 14, N-(2-(2,3-Difluoro-4-((4-isopropylpiperazin-1-yl)methyl)phenyl)pyridin-4-yl)-2-methoxy-5-morpholinopyridine-3-sulfonamide]: the IC50 is ≤ 3.16 nM.

Consider `COc1ncc(N2CCOCC2)cc1S(=O)(=O)Nc1ccnc(-c2ccc(CN3CCN(C4CCC4)CC3)cc2)c1` [Example 7], for which the IC50 was ≤ 3.16 nM.

Take `COc1ncc(N2CCOCC2)cc1S(=O)(=O)Nc1ccnc(-c2cc(Cl)c(CN3CCN(C(C)C)CC3)cc2F)c1` [Example 35, N-(2-(5-Chloro-2-fluoro-4-((4-isopropylpiperazin-1-yl)methyl)phenyl)pyridin-4-yl)-2-methoxy-5-morpholinopyridine-3-sulfonamide]: the IC50 is ≤ 3.16 nM.

As to `COc1ncc(N2CCOCC2)cc1S(=O)(=O)Nc1ccnc(-c2ccc(CN3C[C@@H](C)O[C@@H](C)C3)cc2)c1` [Example 23, N-(2-(4-(((cis)-2,6-Dimethylmorpholino)methyl)phenyl)pyridin-4-yl)-2-methoxy-5-morpholinopyridine-3-sulfonamide], the IC50 is ≤ 3.16 nM.

With `COc1ncc(N2CCOCC2)cc1S(=O)(=O)Nc1ccnc(-c2ccc(CN3CCN(C4COC4)CC3)cc2F)c1` [Example 15, N-(2-(2-Fluoro-4-((4-(oxetan-3-yl)piperazin-1-yl)methyl)phenyl)pyridin-4-yl)-2-methoxy-5-morpholinopyridine-3-sulfonamide, 3 formic acid salt], the IC50 was ≤ 3.16 nM.

Consider `COc1ncc(N2CCOCC2)cc1S(=O)(=O)Nc1ccnc(-c2ccc(CN3CCN(C(C)C)CC3)cc2F)c1` [Example 1, N-(2-(2-Fluoro-4-((4-isopropylpiperazin-1-yl)methyl)phenyl)pyridin-4-yl)-2-methoxy-5-morpholinopyridine-3-sulfonamide], for which the IC50 was 1 nM and ≤ 3.16 nM.

`COc1ncc(N2CCOCC2)cc1S(=O)(=O)Nc1ccnc(-c2ccc(CN3CCNCC3)cc2F)c1` [Example 25, N-(2-(2-Fluoro-4-(piperazin-1-ylmethyl)phenyl)pyridin-4-yl)-2-methoxy-5-morpholinopyridine-3-sulfonamide]: the IC50 is ≤ 3.16 nM.

Turning to `COc1ncc(N2CCOCC2)cc1S(=O)(=O)Nc1ccnc(-c2ccc(CN3CCN(C(C)(C)C)CC3)cc2F)c1` [Example 2, N-(2-(4-((4-(tert-Butyl)piperazin-1-yl)methyl)-2-fluorophenyl)pyridin-4-yl)-2-methoxy-5-morpholinopyridine-3-sulfonamide], the IC50 is ≤ 3.16 nM.

Take `CC(C)N1CCN(Cc2ccc(-c3cc(NS(=O)(=O)c4cc(N5CCOCC5)cnc4N(C)C)ccn3)c(F)c2)CC1` [Example 26, 2-(Dimethylamino)-N-(2-(2-fluoro-4-((4-isopropylpiperazin-1-yl)methyl)phenyl)pyridin-4-yl)-5-morpholinopyridine-3-sulfonamide]: the IC50 is ≤ 3.16 nM.

With `COCCN1CCN(Cc2ccc(-c3cc(NS(=O)(=O)c4cc(N5CCOCC5)cnc4OC)ccn3)c(F)c2)CC1` [Example 18, N-(2-(2-Fluoro-4-((4-(2-methoxyethyl)piperazin-1-yl)methyl)phenyl)pyridin-4-yl)-2-methoxy-5-morpholinopyridine-3-sulfonamide, 1.2 formic acid salt], the IC50 is ≤ 3.16 nM.

As to `CN(C)c1ncc(N2CCOCC2)cc1S(=O)(=O)Nc1ccnc(-c2ccc(CN3CCN(C(C)(C)C)CC3)cc2F)c1` [Example 27, N-(2-(4-((4-(tert-Butyl)piperazin-1-yl)methyl)-2-fluorophenyl)pyridin-4-yl)-2-(dimethylamino)-5-morpholinopyridine-3-sulfonamide], the IC50 is ≤ 3.16 nM.

`COc1ncc(N2CCOCC2)cc1S(=O)(=O)Nc1ccnc(-c2ccc(CN3CCC(C)C3)cc2F)c1` (centres unmarked) [Example 19, N-(2-(2-fluoro-4-((3-methylpyrrolidin-1-yl)methyl)phenyl)pyridin-4-yl)-2-methoxy-5-morpholinopyridine-3-sulfonamide]: the IC50 was ≤ 3.16 nM.

As to `COc1ncc(N2CCOCC2)cc1S(=O)(=O)Nc1ccnc(-c2ccc(CN3CCCCC3)cc2F)c1` [Example 21, N-(2-(2-fluoro-4-(piperidin-1-ylmethyl)phenyl)pyridin-4-yl)-2-methoxy-5-morpholinopyridine-3-sulfonamide], the IC50 is ≤ 3.16 nM.

For `COc1ncc(N2CCOCC2)cc1S(=O)(=O)Nc1ccnc(-c2ccc(CN3CCN(C(C)(C)C)CC3)cc2)c1` [Example 6, N-(2-(4-((4-(tert-Butyl)piperazin-1-yl)methyl)phenyl)pyridin-4-yl)-2-methoxy-5-morpholinopyridine-3-sulfonamide], the IC50 is ≤ 3.16 nM.

As to `COc1ncc(N2CCOCC2)cc1S(=O)(=O)Nc1ccnc(-c2ccc(CN3CCN(C4COC4)CC3)cc2)c1` [Example 13], the IC50 is ≤ 3.16 nM.

Consider `COc1ncc(N2CCOCC2)cc1S(=O)(=O)Nc1ccnc(-c2cc(F)c(CN3CCN(C(C)C)CC3)cc2F)c1` [Example 17, N-(2-(2,5-Difluoro-4-((4-isopropylpiperazin-1-yl)methyl)phenyl)pyridin-4-yl)-2-methoxy-5-morpholinopyridine-3-sulfonamide], for which the IC50 is ≤ 3.16 nM.

With `COc1ncc(N2CCOCC2)cc1S(=O)(=O)Nc1ccnc(-c2ccc(CN3CCN(C(C)C)CC3)cc2)c1` [Example 3, N-(2-(4-((4-Isopropylpiperazin-1-yl)methyl)phenyl)pyridin-4-yl)-2-methoxy-5-morpholinopyridine-3-sulfonamide], the IC50 is ≤ 3.16 nM.

The values are drawn from patent publication US10793559B2, “Chemical compounds” (GlaxoSmithKline Intellectual Property Development Limited, priority 2016, dated 2020).
